ChEMBL document CHEMBL3097994, “Simplified captopril analogues as NDM-1 inhibitors” (Bioorg Med Chem Lett, 2014)
Active and inactive are the calls of the source. No cut-off for these calls is given here.

assay: Inhibition of NDM-1 (unknown origin) using imipenem as substrate by spectrophotometric analysis

Compound | IC50 [µM]
CON(C)C(=O)[C@@H](C)CS | 48
CC(CS)C(=O)O (racemic) | 56
C[C@H](CS)C(=O)O | 81
CC(CS)C(=O)Nc1ncc(Br)s1 (stereo not drawn) | 52
OCC(S)CS (stereo not drawn) [DIMERCAPROL] | 10.4
CC(CS)C(=O)Nc1ccc(F)cc1 (stereo not drawn) | > 200
CC(CS)C(=O)Nc1cccc(F)c1 (stereo not drawn) | > 200
CC(CS)C(=O)NCCc1ccccc1 (stereo not drawn) | > 200
CSCCNC(=O)[C@H](C)CS | 13
CC(CS)C(=O)Nc1nccs1 (stereo not drawn) | > 200
CC(CS)C(=O)Nc1ncc[nH]1 (stereo not drawn) | > 200
CC(CS)C(=O)Nc1ccccc1 (stereo not drawn) | 135
C[C@H](CS)C(=O)NCc1ccccc1 | 5
CC(CO)CS (stereo not drawn) | 15
CCCCNC(=O)C(C)CS (stereo not drawn) | 20
CC(CS)C(=O)NCc1ccco1 (stereo not drawn) | > 200
C[C@@H](CS)C(=O)O | 53
CC(CS)C(=O)NCc1ccc(F)cc1 (stereo not drawn) | > 200
Cc1ccccc1CNC(=O)[C@H](C)CS | > 200
CON(C)C(=O)[C@H](C)CS | 20
CONC(=O)[C@H](C)CS | 55
C[C@@H](CS)C(=O)NCc1ccccc1 | 1.5
CC(CS)C(=O)NCCc1cccs1 (stereo not drawn) | > 200
Cc1coc(NC(=O)C(C)CS)n1 (stereo not drawn) | 21
CONC(=O)[C@@H](C)CS | 92
C[C@H](CS)C(=O)NCc1ccc(O)cc1 | > 200
COc1ccc(CONC(=O)C(C)CS)cc1 (stereo not drawn) | > 200
C[C@H](CS)C(=O)NCCS(C)(=O)=O | 120
C[C@H](CS)C(=O)NCc1ccccc1O | 5

assay: Inhibition of NDM-1 (unknown origin) using imipenem as substrate at 1 mM by spectrophotometric analysis

Compound | inhibition
COC(=O)C(C)CS (stereo not drawn) | inactive
CC(CS)C(=O)N1CCOCC1 (stereo not drawn) | inactive
CNc1ccccc1NC(=O)C(C)CS (stereo not drawn) | inactive

assay: Inhibition of NDM-1 (unknown origin)

Compound | IC50 [µM]
C[C@H](CS)C(=O)N1CCC[C@H]1C(=O)O [CAPTOPRIL] | 39
